# Source: the NIST ThermoML archive (doi:10.1016/j.jct.2017.02.005)
# Values joined by “and” are separate entries in the source; they are usually repeats but may differ in a detail not shown here. Identical values can stand only once. ± gives the expanded uncertainty stated by the source.
# Details: Liquid, Ebulliometric method (Recirculating still)
smiles,measurement,setting,value
O [water],vapor or sublimation pressure,372.81 K,100 ± 0.65 kPa
same,vapor or sublimation pressure,372.84 K,100 ± 0.75 kPa
CC(C)O [propan-2-ol],vapor or sublimation pressure,317.07 K,17.46 ± 0.22 kPa
same,vapor or sublimation pressure,317.65 K,17.98 ± 0.22 kPa
same,vapor or sublimation pressure,318.1 K,18.39 ± 0.22 kPa
same,vapor or sublimation pressure,318.73 K,19.01 ± 0.22 kPa
same,vapor or sublimation pressure,319.19 K,19.48 ± 0.23 kPa
same,vapor or sublimation pressure,319.72 K,20.03 ± 0.23 kPa
same,vapor or sublimation pressure,320.19 K,20.52 ± 0.23 kPa
same,vapor or sublimation pressure,320.65 K,21 ± 0.23 kPa
same,vapor or sublimation pressure,321.11 K,21.49 ± 0.23 kPa
same,vapor or sublimation pressure,321.58 K,22.03 ± 0.23 kPa
same,vapor or sublimation pressure,322.07 K,22.55 ± 0.23 kPa
same,vapor or sublimation pressure,322.47 K,23.03 ± 0.23 kPa
same,vapor or sublimation pressure,322.91 K,23.52 ± 0.23 kPa
same,vapor or sublimation pressure,323.32 K,24.02 ± 0.24 kPa
same,vapor or sublimation pressure,323.71 K,24.51 ± 0.24 kPa
same,vapor or sublimation pressure,324.13 K,25.03 ± 0.24 kPa
same,vapor or sublimation pressure,324.49 K,25.48 ± 0.24 kPa
same,vapor or sublimation pressure,324.94 K,26.04 ± 0.24 kPa
same,vapor or sublimation pressure,325.3 K,26.52 ± 0.24 kPa
same,vapor or sublimation pressure,325.72 K,27.08 ± 0.24 kPa
same,vapor or sublimation pressure,326.18 K,27.69 ± 0.24 kPa
same,vapor or sublimation pressure,326.53 K,28.19 ± 0.24 kPa
same,vapor or sublimation pressure,326.99 K,28.83 ± 0.24 kPa
same,vapor or sublimation pressure,327.46 K,29.45 ± 0.25 kPa
same,vapor or sublimation pressure,327.86 K,30.08 ± 0.25 kPa
same,vapor or sublimation pressure,328.47 K,30.96 ± 0.25 kPa
same,vapor or sublimation pressure,329.06 K,31.86 ± 0.25 kPa
same,vapor or sublimation pressure,329.64 K,32.76 ± 0.26 kPa
same,vapor or sublimation pressure,330.26 K,33.77 ± 0.26 kPa
same,vapor or sublimation pressure,330.73 K,34.52 ± 0.26 kPa
same,vapor or sublimation pressure,331.32 K,35.48 ± 0.26 kPa
same,vapor or sublimation pressure,331.83 K,36.37 ± 0.27 kPa
same,vapor or sublimation pressure,332.44 K,37.45 ± 0.27 kPa
same,vapor or sublimation pressure,332.99 K,38.41 ± 0.27 kPa
same,vapor or sublimation pressure,333.5 K,39.33 ± 0.27 kPa
same,vapor or sublimation pressure,334.1 K,40.41 ± 0.28 kPa
same,vapor or sublimation pressure,334.6 K,41.44 ± 0.28 kPa
same,vapor or sublimation pressure,335.12 K,42.44 ± 0.28 kPa
same,vapor or sublimation pressure,335.64 K,43.46 ± 0.28 kPa
same,vapor or sublimation pressure,336.11 K,44.38 ± 0.29 kPa
same,vapor or sublimation pressure,336.55 K,45.32 ± 0.29 kPa
same,vapor or sublimation pressure,337.07 K,46.34 ± 0.29 kPa
same,vapor or sublimation pressure,337.5 K,47.28 ± 0.3 kPa
same,vapor or sublimation pressure,337.98 K,48.35 ± 0.3 kPa
same,vapor or sublimation pressure,338.45 K,49.34 ± 0.29 kPa
same,vapor or sublimation pressure,338.86 K,50.25 ± 0.3 kPa
same,vapor or sublimation pressure,339.3 K,51.26 ± 0.31 kPa
same,vapor or sublimation pressure,339.72 K,52.33 ± 0.31 kPa
same,vapor or sublimation pressure,340.04 K,53.01 ± 0.3 kPa
same,vapor or sublimation pressure,340.43 K,53.94 ± 0.31 kPa
same,vapor or sublimation pressure,340.89 K,55.03 ± 0.31 kPa
same,vapor or sublimation pressure,341.25 K,55.92 ± 0.31 kPa
same,vapor or sublimation pressure,341.69 K,56.96 ± 0.32 kPa
same,vapor or sublimation pressure,342.09 K,58.05 ± 0.33 kPa
same,vapor or sublimation pressure,342.48 K,59.04 ± 0.33 kPa
same,vapor or sublimation pressure,342.82 K,59.93 ± 0.33 kPa
same,vapor or sublimation pressure,343.2 K,60.91 ± 0.33 kPa
same,vapor or sublimation pressure,343.59 K,61.94 ± 0.34 kPa
same,vapor or sublimation pressure,343.96 K,62.98 ± 0.34 kPa
same,vapor or sublimation pressure,344.32 K,63.92 ± 0.34 kPa
same,vapor or sublimation pressure,344.68 K,64.96 ± 0.35 kPa
same,vapor or sublimation pressure,345.05 K,65.97 ± 0.34 kPa
same,vapor or sublimation pressure,345.35 K,66.84 ± 0.36 kPa
same,vapor or sublimation pressure,345.75 K,68.03 ± 0.36 kPa
same,vapor or sublimation pressure,346.13 K,69.14 ± 0.36 kPa
same,vapor or sublimation pressure,346.46 K,70.12 ± 0.36 kPa
same,vapor or sublimation pressure,347.11 K,72.04 ± 0.37 kPa
same,vapor or sublimation pressure,347.79 K,74.18 ± 0.37 kPa
same,vapor or sublimation pressure,348.37 K,75.96 ± 0.37 kPa
same,vapor or sublimation pressure,348.95 K,77.81 ± 0.38 kPa
same,vapor or sublimation pressure,349.61 K,79.96 ± 0.39 kPa
same,vapor or sublimation pressure,350.08 K,81.58 ± 0.4 kPa
same,vapor or sublimation pressure,350.75 K,83.94 ± 0.4 kPa
same,vapor or sublimation pressure,351.21 K,85.47 ± 0.4 kPa
same,vapor or sublimation pressure,351.69 K,87.17 ± 0.41 kPa
same,vapor or sublimation pressure,352.09 K,88.63 ± 0.41 kPa
same,vapor or sublimation pressure,352.54 K,90.24 ± 0.42 kPa
same,vapor or sublimation pressure,353.16 K,92.57 ± 0.43 kPa
same,vapor or sublimation pressure,353.66 K,94.46 ± 0.43 kPa
same,vapor or sublimation pressure,354.2 K,96.49 ± 0.43 kPa
same,vapor or sublimation pressure,354.59 K,98.05 ± 0.44 kPa
same,vapor or sublimation pressure,355.09 K,100 ± 0.45 kPa and 100.03 ± 0.45 kPa
same,vapor or sublimation pressure,355.38 K,101.28 ± 0.45 kPa
same,vapor or sublimation pressure,355.93 K,103.44 ± 0.45 kPa
same,vapor or sublimation pressure,356.4 K,105.38 ± 0.46 kPa
same,vapor or sublimation pressure,356.76 K,106.91 ± 0.47 kPa
same,vapor or sublimation pressure,357.16 K,108.63 ± 0.47 kPa
same,vapor or sublimation pressure,357.52 K,110.13 ± 0.47 kPa
same,vapor or sublimation pressure,357.93 K,111.88 ± 0.49 kPa
same,vapor or sublimation pressure,358.35 K,113.79 ± 0.49 kPa
same,vapor or sublimation pressure,358.65 K,115.1 ± 0.5 kPa
same,vapor or sublimation pressure,358.98 K,116.64 ± 0.5 kPa
same,vapor or sublimation pressure,359.43 K,118.64 ± 0.5 kPa
same,vapor or sublimation pressure,359.77 K,120.24 ± 0.52 kPa
same,vapor or sublimation pressure,360.16 K,122.11 ± 0.52 kPa
same,vapor or sublimation pressure,360.57 K,124.03 ± 0.52 kPa
same,vapor or sublimation pressure,360.9 K,125.62 ± 0.52 kPa
same,vapor or sublimation pressure,361.26 K,127.36 ± 0.52 kPa
same,vapor or sublimation pressure,361.62 K,129.08 ± 0.54 kPa
same,vapor or sublimation pressure,361.98 K,130.93 ± 0.55 kPa
same,vapor or sublimation pressure,362.26 K,132.35 ± 0.54 kPa
same,vapor or sublimation pressure,362.52 K,133.65 ± 0.54 kPa
